The record followed here is ChEMBL document CHEMBL1201862, “PubChem BioAssay data set” (2004).

Common to all, as to assay: growth of human tumour cells (NCI), 48 h
Assay [1] has as its system RXF 631.
Assay [2] relates to BT-549.
In assay [3] the test system is DU-145.
The subject of assay [4] is MDA-MB-231.
The subject of assay [5] is MDA-MB-435.
Assay [6] concerns MDA-N.
Assay [7] relates to PC-3.
For assay [8], the system named is SR.
In assay [9] the test system is T47D.

Molecules are shown by their SMILES.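 Cultured in 96-well plates, cells were exposed to test compound for 48 hours across five concentrations. The concentration for 50% growth inhibition is given as GI50.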 Calls of active or inactive are those of the source. Rule as the data show it: active = GI50 up to about 1.1 µM and inactive = higher. Some results are limits rather than exact numbers.

In the case of `O=C(O)CCCNS(=O)(=O)c1ccc2ccccc2c1`, the GI50 in assay [1] was > 100 µM (inactive).
As to `Cc1cc(C)c2c(=N)c3ccccc3n(CCCCCCn3c4ccccc4c(=N)c4c(C)cc(C)nc43)c2n1`, the GI50 is 1.56 µM (inactive) in assay [2]; 1.74 µM (inactive) in assay [3]; 0.447 µM (active) in [4]; 1.77 µM (inactive) in assay [5]; 1.78 µM (inactive) in [6]; 1.28 µM (inactive) in assay [7]. In addition, the GI50 in [8] was 0.197 µM (active); in assay [9] it was 1.92 µM (inactive).
Turning to `COc1ccc2oc(=N)c(C(=O)Nc3ccccc3)cc2c1`, the GI50 in assay [2] was 17.7 µM (inactive); in [3] it was 33.7 µM (inactive); in assay [4], 23.4 µM (inactive); in assay [5], 15.3 µM (inactive); in assay [6], 18.5 µM (inactive); in assay [7] it was 32.9 µM (inactive). For the same compound, the GI50 in assay [8] is 7.11 µM (inactive); in [9] it was 4.41 µM (inactive).
For the compound `COc1cc([C@@H]2c3cc4c(cc3[C@@H](OC3OC5COC(C)OC5C(O)C3O)[C@H]3COC(=O)[C@H]23)OCO4)cc(OC)c1O` (some centres not stated), the GI50 in [2] is 2.4 µM (inactive); in assay [3] it was 0.849 µM (active); in assay [4] it was 1.7 µM (inactive); in [5] it was 28.2 µM (inactive); in assay [6], 0.968 µM (active); in [7] it was 0.661 µM (active). For the same compound, in [9], the GI50 was 0.897 µM (active).
For the compound `CC(=O)NC1C(O)CC(OCCCSCCN)(C(=O)O)OC1C(O)C(O)CO` (configuration not stated), the GI50 in assay [1] and in [8] was > 100 µM (inactive) throughout.
For `O=C(CC1OC(O)C(Cl)=C1Cl)c1cccnc1` (configuration not stated), the GI50 in [1] and in assay [8] was > 100 µM (inactive) in each case.
For the compound `COC(=O)C(Cc1cc(OC)c(OC)c(OC)c1)(NC(=O)c1ccccc1)P(=O)(OC)OC` (configuration not stated), the GI50 in assay [1] and in [8] was > 100 µM (inactive) in each case.
As to `O=C(O)CNc1ccc(Cl)c(Cl)c1`, the GI50 was 36.7 µM (inactive) in assay [2]; 29.4 µM (inactive) in assay [3]; 45.3 µM (inactive) in assay [4]; 26.3 µM (inactive) in assay [5]; 23.7 µM (inactive) in assay [6]; 24.6 µM (inactive) in assay [7]. In addition, the GI50 in assay [9] was 15.6 µM (inactive).
